{
  "source": "patent US20250295690A1",
  "about": "“ORAL FORMULATION BASED ON A PRE-ESTABLISHED ASSOCIATION OF SULODEXIDE AND FLAVONOIDS FOR THE TREATMENT OF CHRONIC VENOUS INSUFFICIENCY AND PREVENTION OF COMPLICATIONS THEREOF” (priority 2021, published 2025)",
  "key": {"[1]": {"test_system": "human micro-vascular endothelial cells (HMVEC)", "assay": "In vitro vascular permeability assay on a VEGF-treated HMVEC monolayer (FITC-dextran)", "format": "cell-based", "details": "HMVEC line, 50 ng/ml, 8 hours", "experimental": "(§1) The direct effect on the vasal permeability of three compositions comprising Sulodexide+flavonoids was evaluated in vitro:\n(§2) All tested compositions (i)-(iii) comprise a concentration of sulodexide equal to 0.25% and a concentration of diosmin, hesperidin or troxerutin, respectively, equal to 4.5% by weight with respect to the total weight of the composition.\n(§3) The action of the compositions (i)-(iii) was compared with the action of the active principles Diosmin, Hesperidin, Troxerutin, 8% by weight, and glucosaminoglycan Sulodexide, 0.5% by weight, administered singularly.\n(§4) The direct effect on the vasal permeability was evaluated by using endothelial cellular cultures miming the continuous mono-layer of the endothelium of the human vessels. Two cellular models were used: the human micro-vascular endothelial cells (HMVEC) to simulate the vessels of the microcirculation, and the human umbilical vein endothelial cells (HUVEC) to study the vasal endothelium. The cells of the lines HMVEC and HUVEC (3×10^5) were incubated for 72 hours at 37° C. on supports of semi-permeable membrane with pores having 1-μm diameter so as to form a continuous mono-layer wholly impermeable to the substance used as control, the fluorescein isothiocyanate (FITC) dextran. The vasal permeability was evaluated with the kit “The Millipore® In Vitro Vascular Permeability Assay”. […]"}, "[2]": {"test_system": "human umbilical vein endothelial cells (HUVEC)", "assay": "In vitro vascular permeability assay on a VEGF-treated HUVEC monolayer (FITC-dextran)", "format": "cell-based", "details": "50 ng/ml, 8 hours", "experimental": "as §1, §2, §3, §4"}},
  "data": [
    {"substance": "VEGF", "values": [
      {"measurement": "increase in permeability", "setting": "[1]", "result": 36, "unit": "%"},
      {"measurement": "increase in permeability", "setting": "[2]", "result": 42, "unit": "%"}
    ]}
  ]
}
